What was measured:
Assay type in all cases: in vivo
[1] = system: Amaranthus retroflexus; assay: Farming soil treatment test; details: soil surface spray prior to weed growth, 30 days
Protocol: (§1) Evaluation of herbicidal efficacy was carried out by comparing growth inhibition rate (%) with an untreated group, while evaluation of phytotoxicity was carried out by comparing growth inhibition rate (%) with the state of a complete eradication group, and were evaluated at 11 levels indicated below. [table] Field soil was filled into a 1/6000 are pot followed by seeding with Digitaria ciliaris, Chenopodium album and Amaranthus retroflexus and covering with soil. Wettable powder of compounds of formula (I) shown in Table 1 prepared in compliance with the preparation examples were diluted with water to the prescribed amount of chemical and uniformly sprayed onto each soil surface layer using 10 liters of sprayed water per are prior to weed growth following seeding. After treating for 30 days in a glass greenhouse at an average atmospheric temperature of 30° C., the herbicidal efficacy thereof was investigated. Evaluation of herbicidal efficacy was carried out in the same manner as the above-mentioned Test Example 1.

[2] = system: Chenopodium album; assay: Farming soil treatment test; details: soil surface spray prior to weed growth, 30 days
Protocol: as §1

[3] = system: Digitaria ciliaris; assay: Farming soil treatment test; details: soil surface spray prior to weed growth, 30 days
Protocol: as §1

[4] = system: Monochoria vaginalis; assay: Paddy herbicidal activity test; details: irrigated paddy pot, 30 days
Protocol: (§2) Rice paddy soil was filled into a 1/10000 are pot followed by the addition of suitable amounts of water and chemical fertilizer, kneading, seeding with Echinochloa crus-galli, Monochoria vaginalis and Scirpus juncoides and maintaining in an irrigated state at a water depth of 3 cm. Wettable powder of Target Compound (I) shown in Table 1 prepared in compliance with the preparation examples were diluted with a suitable amount of water, rice plants in the 2.0 leaf stage were transplanted during 3.5 leaf stage of Echinochloa crus-galli, and treated by dropping in chemical in the prescribed amount per are using a pipette. After treating for 30 days in a glass greenhouse at an average atmospheric temperature of 30° C., the herbicidal efficacy thereof was investigated. Evaluation of herbicidal efficacy was carried out by comparing growth inhibition rate (%) with an untreated group, while evaluation of phytotoxicity was carried out by comparing growth inhibition rate (%) with the state of a complete eradication group, and were evaluated at 11 levels indicated below. [table]

[5] = system: Echinochloa crus-galli; assay: Paddy herbicidal activity test; details: irrigated paddy pot, treated at 3.5 leaf stage of Echinochloa crus-galli, 30 days
Protocol: as §2

[6] = system: Scirpus juncoides; assay: Paddy herbicidal activity test; details: irrigated paddy pot, 30 days
Protocol: as §2

[7] = system: Amaranthus retroflexus; assay: Weed foliar treatment test; details: foliar spray, 3 weeks
Protocol: (§3) Evaluation of herbicidal efficacy was carried out by comparing growth inhibition rate (%) with an untreated group, while evaluation of phytotoxicity was carried out by comparing growth inhibition rate (%) with the state of a complete eradication group, and were evaluated at 11 levels indicated below. [table] Soil was filled into a 1/6000 are pot followed by seeding with Digitaria ciliaris, Chenopodium album and Amaranthus retroflexus, covering with soil, and cultivating in a glass greenhouse at an average atmospheric temperature of 25° C. Wettable powder of Target Compound (I) shown in Table 1 prepared in compliance with the preparation examples were diluted with water to the prescribed amount of chemical and uniformly sprayed onto the weeds using 15 liters of sprayed water per are when Digitaria ciliaris had grown to the 1.0 to 2.0 leaf stage. After treating for 3 weeks in a glass greenhouse at an average atmospheric temperature of 25° C., the herbicidal efficacy thereof was investigated, Evaluation of herbicidal efficacy was carried out in the same manner as the above-mentioned Test Example 1.

[8] = system: Chenopodium album; assay: Weed foliar treatment test; details: foliar spray, 3 weeks
Protocol: as §3

[9] = system: Digitaria ciliaris; assay: Weed foliar treatment test; details: foliar spray at 1.0 to 2.0 leaf stage of Digitaria ciliaris, 3 weeks
Protocol: as §3

[10] = system: Rice plants; assay: Paddy herbicidal activity test, phytotoxicity to transplanted rice; details: rice transplanted at 2.0 leaf stage, 30 days
Protocol: as §2

Compound	herbicidal efficacy (growth inhibition rate level) Amaranthus retroflexus ([1]; 5g a.i./10a)	herbicidal efficacy (growth inhibition rate level) Amaranthus retroflexus ([1]; 10g a.i./10a)	herbicidal efficacy (growth inhibition rate level) Chenopodium album ([2]; 5g a.i./10a)	herbicidal efficacy (growth inhibition rate level) Chenopodium album ([2]; 10g a.i./10a)	herbicidal efficacy (growth inhibition rate level) Digitaria ciliaris ([3]; 5g a.i./10a)	herbicidal efficacy (growth inhibition rate level) Digitaria ciliaris ([3]; 10g a.i./10a)	herbicidal efficacy (growth inhibition rate level) Monochoria vaginalis ([4]; 1g a.i./10a)	herbicidal efficacy (growth inhibition rate level) Monochoria vaginalis ([4]; 5g a.i./10a)	herbicidal efficacy (growth inhibition rate level) Echinochloa crus-galli ([5]; 1g a.i./10a)	herbicidal efficacy (growth inhibition rate level) Echinochloa crus-galli ([5]; 5g a.i./10a)	herbicidal efficacy (growth inhibition rate level) Scirpus juncoides ([6]; 1g a.i./10a)	herbicidal efficacy (growth inhibition rate level) Scirpus juncoides ([6]; 5g a.i./10a)	herbicidal efficacy (growth inhibition rate level) Amaranthus retroflexus ([7]; 5g a.i./10a)	herbicidal efficacy (growth inhibition rate level) Amaranthus retroflexus ([7]; 10g a.i./10a)	herbicidal efficacy (growth inhibition rate level) Chenopodium album ([8]; 5g a.i./10a)	herbicidal efficacy (growth inhibition rate level) Chenopodium album ([8]; 10g a.i./10a)	herbicidal efficacy (growth inhibition rate level) Digitaria ciliaris ([9]; 5g a.i./10a)	herbicidal efficacy (growth inhibition rate level) Digitaria ciliaris ([9]; 10g a.i./10a)	phytotoxicity (growth inhibition rate level) Rice plants ([10]; 1g a.i./10a)	phytotoxicity (growth inhibition rate level) Rice plants ([10]; 5g a.i./10a)
CC1CC1CNc1c(C#N)cnn1-c1nn2c(c1Cl)CCCC2 (centres unmarked) [Compound 12]	10 (10: 100%)	10 (10: 100%)	10 (10: 100%)	10 (10: 100%)	10 (10: 100%)	10 (10: 100%)	8 (8: 80% to less than 90%)	9 (9: 90% to less than 100%)	9 (9: 90% to less than 100%)	10 (10: 100%)	9 (9: 90% to less than 100%)	9 (9: 90% to less than 100%)	10 (10: 100%)	10 (10: 100%)	10 (10: 100%)	10 (10: 100%)	10 (10: 100%)	10 (10: 100%)	0 (0 (exponent): 0% to less than 10% (growth inhibition rate))	1 (1: 10% to less than 20%)
N#Cc1cnn(-c2nn3c(c2Cl)CCCC3)c1NC1CC1 [Control agent 4.84, reference compound]	6 (6: 60% to less than 70%)	6 (6: 60% to less than 70%)	6 (6: 60% to less than 70%)	6 (6: 60% to less than 70%)	5 (5: 50% to less than 60%)	5 (5: 50% to less than 60%)	2 (2: 20% to less than 30%)	3 (3: 30% to less than 40%)	3 (3: 30% to less than 40%)	5 (5: 50% to less than 60%)	3 (3: 30% to less than 40%)	4 (4: 40% to less than 50%)	6 (6: 60% to less than 70%)	7 (7: 70% to less than 80%)	6 (6: 60% to less than 70%)	7 (7: 70% to less than 80%)	5 (5: 50% to less than 60%)	6 (6: 60% to less than 70%)	0 (0 (exponent): 0% to less than 10% (growth inhibition rate))	2 (2: 20% to less than 30%)
N#Cc1cnn(-c2nn3c(c2Br)CCCC3)c1N(CC1CC1)C(=O)C(F)(F)F [Compound 148]	10 (10: 100%)	10 (10: 100%)	10 (10: 100%)	10 (10: 100%)	10 (10: 100%)	10 (10: 100%)	7 (7: 70% to less than 80%)	9 (9: 90% to less than 100%)	8 (8: 80% to less than 90%)	10 (10: 100%)	7 (7: 70% to less than 80%)	9 (9: 90% to less than 100%)	10 (10: 100%)	10 (10: 100%)	10 (10: 100%)	10 (10: 100%)	10 (10: 100%)	10 (10: 100%)	0 (0 (exponent): 0% to less than 10% (growth inhibition rate))	0 (0 (exponent): 0% to less than 10% (growth inhibition rate))
N#Cc1cnn(-c2nn3c(c2Br)CCCC3)c1NCC1CC1 [Compound 147]	10 (10: 100%)	10 (10: 100%)	10 (10: 100%)	10 (10: 100%)	10 (10: 100%)	10 (10: 100%)	7 (7: 70% to less than 80%)	8 (8: 80% to less than 90%)	8 (8: 80% to less than 90%)	9 (9: 90% to less than 100%)	7 (7: 70% to less than 80%)	9 (9: 90% to less than 100%)	10 (10: 100%)	10 (10: 100%)	10 (10: 100%)	10 (10: 100%)	10 (10: 100%)	10 (10: 100%)	0 (0 (exponent): 0% to less than 10% (growth inhibition rate))	0 (0 (exponent): 0% to less than 10% (growth inhibition rate))
